Paper PMC10836395, “Investigation of how gate residues in the main channel affect the catalytic activity of Scytalidium thermophilum catalase” (Acta Crystallographica. Section D, Structural Biology, 2024)
Read-outs that look alike come from different tables or passages of the source. Marks after values point to notes of the source that are not given here.

Experiments:
CATPO [1] = molecular target: T1, CATPO (Scytalidium thermophilum (Humicola insolens), UniProt M4GGR5); assay: Inhibition of catechol oxidation; type: biochemical; settings: for inhibition type: catechol oxidase activity of wild-type CATPO, Lineweaver–Burk
CATPO E484I variant [2] = molecular target: T2, CATPO E484I variant (Scytalidium thermophilum (Humicola insolens), UniProt M4GGR5, E503I); assay: biochemical
CATPO E484A variant [3] = molecular target: T3, CATPO E484A variant (Scytalidium thermophilum (Humicola insolens), UniProt M4GGR5, E503A); assay: biochemical
CATPO T188D variant [4] = molecular target: T4, CATPO T188D variant (Scytalidium thermophilum (Humicola insolens), UniProt M4GGR5, T207D); assay: biochemical
CATPO T188A variant [5] = molecular target: T5, CATPO T188A variant (Scytalidium thermophilum (Humicola insolens), UniProt M4GGR5, T207A); assay: biochemical
CATPO E484D variant [6] = molecular target: T6, CATPO E484D variant (Scytalidium thermophilum (Humicola insolens), UniProt M4GGR5, E503D); assay: biochemical
CATPO T188F variant [7] = molecular target: T7, CATPO T188F variant (Scytalidium thermophilum (Humicola insolens), UniProt M4GGR5, T207F); assay: biochemical
CATPO T188I variant [8] = molecular target: T8, CATPO T188I variant (Scytalidium thermophilum (Humicola insolens), UniProt M4GGR5, T207I); assay: biochemical
CATPO T188D variant [9] = molecular target: T4, CATPO T188D variant; type: biochemical; settings: for K m: pH 7.0 (ABTS pH 5.0), 60°C
CATPO T188F variant [10] = molecular target: T7, CATPO T188F variant; type: biochemical; settings: for K m: pH 7.0 (ABTS pH 5.0), 60°C
CATPO [11] = molecular target: T1, CATPO; assay: Substrate-specificity analysis of the phenol oxidase activity; type: biochemical; settings: for K m: pH 7.0 (ABTS pH 5.0), 60°C
CATPO E484A variant [12] = molecular target: T3, CATPO E484A variant; assay: as above; type: biochemical; settings: for K m: pH 7.0 (ABTS pH 5.0), 60°C
CATPO T188A variant [13] = molecular target: T5, CATPO T188A variant; type: biochemical; settings: for K m: pH 7.0 (ABTS pH 5.0), 60°C
CATPO T188I variant [14] = molecular target: T8, CATPO T188I variant; type: biochemical; settings: for K m: pH 7.0 (ABTS pH 5.0), 60°C
CATPO E484D variant [15] = molecular target: T6, CATPO E484D variant; type: biochemical; settings: for K m: pH 7.0 (ABTS pH 5.0), 60°C
CATPO E484I variant [16] = molecular target: T2, CATPO E484I variant; type: biochemical; settings: for K m: pH 7.0 (ABTS pH 5.0), 60°C
[17] = catechol oxidation by CATPO, catechol 1 to 100 mM, read-out: K i

T3 sequence (M4GGR5 entry or part of it E503A): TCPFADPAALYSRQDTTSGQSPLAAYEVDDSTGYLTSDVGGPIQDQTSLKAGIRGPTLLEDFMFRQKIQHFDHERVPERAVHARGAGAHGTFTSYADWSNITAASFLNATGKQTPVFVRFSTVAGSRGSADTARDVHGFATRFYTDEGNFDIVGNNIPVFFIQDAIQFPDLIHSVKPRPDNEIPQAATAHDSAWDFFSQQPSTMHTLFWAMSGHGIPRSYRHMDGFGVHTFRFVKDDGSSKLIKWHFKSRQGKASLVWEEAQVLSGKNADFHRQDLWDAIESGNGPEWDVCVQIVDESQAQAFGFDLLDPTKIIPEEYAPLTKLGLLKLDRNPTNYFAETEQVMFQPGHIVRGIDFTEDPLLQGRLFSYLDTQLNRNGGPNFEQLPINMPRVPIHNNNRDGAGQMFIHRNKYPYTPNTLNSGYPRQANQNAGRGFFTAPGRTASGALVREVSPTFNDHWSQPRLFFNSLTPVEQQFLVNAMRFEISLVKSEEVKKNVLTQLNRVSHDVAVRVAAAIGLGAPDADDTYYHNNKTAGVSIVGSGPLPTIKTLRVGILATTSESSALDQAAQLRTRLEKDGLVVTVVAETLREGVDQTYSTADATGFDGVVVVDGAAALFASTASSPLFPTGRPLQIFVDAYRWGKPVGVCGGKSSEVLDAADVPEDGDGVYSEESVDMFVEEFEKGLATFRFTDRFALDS
T4 sequence (M4GGR5 entry or part of it T207D): as the sequence (M4GGR5 entry or part of it E503A) above
T5 sequence (M4GGR5 entry or part of it T207A): as the sequence (M4GGR5 entry or part of it E503A) above
T6 sequence (M4GGR5 entry or part of it E503D): as the sequence (M4GGR5 entry or part of it E503A) above
T1 sequence (M4GGR5 entry or part of it): as the sequence (M4GGR5 entry or part of it E503A) above
T8 sequence (M4GGR5 entry or part of it T207I): as the sequence (M4GGR5 entry or part of it E503A) above
T7 sequence (M4GGR5 entry or part of it T207F): as the sequence (M4GGR5 entry or part of it E503A) above
T2 sequence (M4GGR5 entry or part of it E503I): as the sequence (M4GGR5 entry or part of it E503A) above

Q: Which results are given for `Nc1nc[nH]n1` [3TR, 3-amino-1,2,4-triazole]?
A: inhibition type (CATPO [1]): competitive; Ki (CATPO [1]; [17]): 21 ± 1 mM; Ki (CATPO E484I variant [2]): 40 ± 4 mM; Ki (CATPO E484A variant [3]): 65 ± 5.5 mM; Ki (CATPO T188D variant [4]): 41 ± 4.1 mM; Ki (CATPO T188A variant [5]): 20 ± 0.2 mM; Ki (CATPO E484D variant [6]): 22 ± 3.2 mM; Ki (CATPO T188F variant [7]): 54 ± 4.5 mM; Ki (CATPO T188I variant [8]): 42 ± 4 mM

Q: How did the V max (CATPO T188D variant [9]) turn out when `CCn1c(=NN=c2sc3cc(S(=O)(=O)O)ccc3n2CC)sc2cc(S(=O)(=O)O)ccc21` [ABTS, 2,2′-azino-bis(3-ethylbenzthiazoline-6-sulfonic acid)] was run?
A: 4000 ± 88 mM/min

Q: What about the “k cat/K m” value (CATPO T188D variant [9]) of the same molecule?
A: 200 ± 25 s^−1 M^−1 (×10^2)

Q: And the K m (CATPO T188D variant [9])?
A: 55 ± 1.0 mM

Q: And the V max (CATPO T188F variant [10])?
A: 6600 ± 120 mM/min

Q: What about the “k cat/K m” value (CATPO T188F variant [10]) of the same molecule?
A: 270 ± 25 s^−1 M^−1 (×10^2)

Q: What about the K m (CATPO T188F variant [10]) of the same molecule?
A: 45 ± 0.5 mM

Q: And the V max (CATPO [11])?
A: 5620 ± 250 mM/min

Q: What about the “k cat/K m” value (CATPO [11]) of the same molecule?
A: 590 ± 20 s^−1 M^−1 (×10^2)

Q: What about the K m (CATPO [11]) of the same molecule?
A: 50 ± 1.5 mM

Q: And the V max (CATPO E484A variant [12])?
A: 8600 ± 220 mM/min

Q: What about the “k cat/K m” value (CATPO E484A variant [12]) of the same molecule?
A: 300 ± 10 s^−1 M^−1 (×10^2)

Q: What about the K m (CATPO E484A variant [12]) of the same molecule?
A: 46 ± 1.0 mM

Q: What about the Ki (CATPO [1]; [17]) of the same molecule?
A: 11 ± 1 mM

Q: What about the V max (CATPO T188A variant [13]) of the same molecule?
A: 5000 ± 100 mM/min

Q: And the “k cat/K m” value (CATPO T188A variant [13])?
A: 90 ± 5 s^−1 M^−1 (×10^2)

Q: And the K m (CATPO T188A variant [13])?
A: 52 ± 0.8 mM

Q: What about the V max (CATPO T188I variant [14]) of the same molecule?
A: 6000 ± 100 mM/min

Q: What about the “k cat/K m” value (CATPO T188I variant [14]) of the same molecule?
A: 190 ± 18 s^−1 M^−1 (×10^2)

Q: And the K m (CATPO T188I variant [14])?
A: 48 ± 0.7 mM

Q: And the Ki (CATPO E484I variant [2]; catechol oxidation by E484I, read-out: K i)?
A: 81 ± 8 mM

Q: And the Ki (CATPO E484A variant [3]; catechol oxidation by E484A, read-out: K i)?
A: 96 ± 5.4 mM

Q: And the Ki (CATPO T188D variant [4]; catechol oxidation by T188D, read-out: K i)?
A: 81 ± 1 mM

Q: What about the Ki (CATPO T188A variant [5]; catechol oxidation by T188A, read-out: K i) of the same molecule?
A: 12 ± 1.2 mM

Q: And the V max (CATPO E484D variant [15])?
A: 5500 ± 132 mM/min

Q: What about the “k cat/K m” value (CATPO E484D variant [15]) of the same molecule?
A: 100 ± 10 s^−1 M^−1 (×10^2)

Q: What about the K m (CATPO E484D variant [15]) of the same molecule?
A: 53 ± 1.0 mM

Q: And the Ki (CATPO E484D variant [6]; catechol oxidation by E484D, read-out: K i)?
A: 12 ± 1.2 mM

Q: And the V max (CATPO E484I variant [16])?
A: 4600 ± 98 mM/min

Q: And the “k cat/K m” value (CATPO E484I variant [16])?
A: 170 ± 10 s^−1 M^−1 (×10^2)

Q: And the K m (CATPO E484I variant [16])?
A: 50 ± 0.5 mM

Q: And the Ki (CATPO T188F variant [7]; catechol oxidation by T188F, read-out: K i)?
A: 84 ± 7 mM

Q: How did the V max (CATPO T188D variant [9]) turn out when `Oc1ccccc1O` [Catechol, catechol] was run?
A: 40000 ± 4000 mM/min

Q: And the “k cat/K m” value (CATPO T188D variant [9])?
A: 8900 ± 70 s^−1 M^−1 (×10^2)

Q: And the K m (CATPO T188D variant [9])?
A: 25 ± 1.5 mM

Q: What about the V max (CATPO T188F variant [10]) of the same molecule?
A: 70000 ± 1290 mM/min

Q: What about the “k cat/K m” value (CATPO T188F variant [10]) of the same molecule?
A: 10200 ± 220 s^−1 M^−1 (×10^2)

Q: And the K m (CATPO T188F variant [10])?
A: 30 ± 1.0 mM

Q: What about the V max (CATPO [11]) of the same molecule?
A: 25000 ± 763 mM/min

Q: What about the “k cat/K m” value (CATPO [11]) of the same molecule?
A: 2200 ± 130 s^−1 M^−1 (×10^2)

Q: What about the K m (CATPO [11]) of the same molecule?
A: 33 ± 0.5 mM

Q: What about the V max (CATPO E484A variant [12]) of the same molecule?
A: 88000 ± 880 mM/min

Q: What about the “k cat/K m” value (CATPO E484A variant [12]) of the same molecule?
A: 14500 ± 130 s^−1 M^−1 (×10^2)

Q: And the K m (CATPO E484A variant [12])?
A: 30 ± 1.0 mM

Q: What about the V max (CATPO T188A variant [13]) of the same molecule?
A: 22500 ± 1000 mM/min

Q: What about the “k cat/K m” value (CATPO T188A variant [13]) of the same molecule?
A: 2000 ± 120 s^−1 M^−1 (×10^2)

Q: What about the K m (CATPO T188A variant [13]) of the same molecule?
A: 33 ± 0.5 mM

Q: What about the V max (CATPO T188I variant [14]) of the same molecule?
A: 65000 ± 1100 mM/min

Q: And the “k cat/K m” value (CATPO T188I variant [14])?
A: 9200 ± 45 s^−1 M^−1 (×10^2)

Q: What about the K m (CATPO T188I variant [14]) of the same molecule?
A: 31 ± 0.5 mM

Q: And the V max (CATPO E484D variant [15])?
A: 23000 ± 1500 mM/min

Q: And the “k cat/K m” value (CATPO E484D variant [15])?
A: 2100 ± 105 s^−1 M^−1 (×10^2)

Q: And the K m (CATPO E484D variant [15])?
A: 35 ± 0.5 mM

Q: What about the V max (CATPO E484I variant [16]) of the same molecule?
A: 50000 ± 1988 mM/min

Q: And the “k cat/K m” value (CATPO E484I variant [16])?
A: 8800 ± 72 s^−1 M^−1 (×10^2)

Q: And the K m (CATPO E484I variant [16])?
A: 30 ± 1.0 mM

Q: Which Ki (CATPO [1]) does the source give for `O=C(NO)c1ccccc1O` [Salicylhydroxamic acid, salicylhydroxamic acid] here?
A: 2.2 ± 0.4 mM

Q: What about the inhibition type (CATPO [1]) of the same molecule?
A: competitive

Q: What about the Ki (CATPO E484I variant [2]) of the same molecule?
A: 5.4 ± 0.5 mM

Q: And the Ki (CATPO E484A variant [3])?
A: 6.7 ± 1.1 mM

Q: And the Ki (CATPO T188D variant [4])?
A: 5.4 ± 0.4 mM

Q: What about the Ki (CATPO T188A variant [5]) of the same molecule?
A: 2.2 ± 0.4 mM

Q: And the Ki (CATPO E484D variant [6])?
A: 2 ± 0.4 mM

Q: And the Ki (CATPO T188F variant [7])?
A: 5.5 ± 0.7 mM

Q: And the Ki (CATPO T188I variant [8])?
A: 5.4 ± 0.9 mM
